{"source": "paper PMC8911181", "about": "“A Novel CDK4/6 and PARP Dual Inhibitor ZC-22 Effectively Suppresses Tumor Growth and Improves the Response to Cisplatin Treatment in Breast and Ovarian Cancer” (International Journal of Molecular Sciences, 2022)", "system": "MDA-MB-231 xenograft tumors", "test": "Breast cancer xenograft mouse model, tumor growth", "type": "in vivo, mice", "protocol": "Six-week-old female athymic nude mice (Homozygous) were purchase from Vital River Laboratories (Beijing, China) and maintained under the guidelines for laboratory animals of Nankai university (NKU). Mice were injected subcutaneously with 2 × 10^6 MDA-MB-231 or 8 × 10^6 OVCAR5 cells. When tumors were 50–100 mm^3 in size, the mice were randomly grouped and treated intraperitoneal (i.p.) with 50 mg/kg of Olaparib, 50 mg/kg of LY2835219, 50 mg/kg of ZC-22, or 1.5 mg/kg of cisplatin alone or in combinations or with the vehicle (PBS containing 10% DMSO and 10% 2-hydroxy-propyl-β-cyclodextrin) every 2 days. Tumor volume was measured every 3–4 days, which was calculated as Length × Width^2/2. At the end of the study, tumor and major organ tissues were harvested by surgery. For histopathological analysis, tissue samples were washed with PBS, fixed in 4% paraformaldehyde (PFA), paraffin-embedded, and sectioned into 7 μm thickness. For Western blot analysis, the tissue samples were dissociated by a tissue-tearor in RIPA buffer containing 1×protease and phosphatase inhibitors.\nFigure 4 ZC-22 suppresses growth of breast cancer xenografts. Female NOD-SCID mice were injected subcutaneously with 2 × 10^6 of MDA-MB-231 cells and treated ip daily with 50 mg/kg of Olaparib (OLA) or LY2835219 (LY-2) alone or together (OLA + LY-2) or with ZC-22 alone starting on day 10 after injection of cells when tumors were 50–80 mm^3 in size. Tumor volumes were measured every 2–3 days. […] (B,C) Pictures of (B) and quantification of the size of (C) the MDA-MB-231 xenograft tumors at the end points. […] (E) Quantification of Ki67 (Left) and γH2A.X (Right)-positive cells in immunohistochemical staining of the xenograft tumor tissues. […]\nFigure 6 ZC-22 sensitizes breast cancer cells to cisplatin treatment in vivo. […] Tumor volumes were measured every 2–3 days. […] (B,C) Pictures (B) and quantification of the size (C) of the MDA-MB-231 xenograft tumors at the end points. […] (E) Quantification of Ki67 (left) and γH2A.X (right)-positive cells in immunohistochemical staining of the xenograft tumor tissues. […]"}
{"smiles": "Cc1nc2c(F)cc(-c3nc(Nc4ccc(N5CCN(C(=O)c6cc(Cc7n[nH]c(=O)c8ccccc78)ccc6F)CC5)cn4)ncc3F)cc2n1C(C)C", "note": "[ZC-22, 4-(4-fluoro-3-(4-(6-((5-fluoro-4-(4-fluoro-1-isopropyl-2-methyl-1H-benzo[d]imidazole-6-yl)pyrimidin-2-yl)amino)pyridin-3-yl)piperazine-1-carbonyl)benzyl)phthalazin-1(2H)-one]", "values": [{"measurement": "growth of the xenograft tumors", "setting": "1.5 mg/kg cisplatin or 50 mg/kg ZC-22 ip alone or together", "result": "effectively inhibit growth of the xenograft tumors"}, {"measurement": "anti-tumor efficacy (tumor growth)", "setting": "50 mg/kg ip, Olaparib and LY2835219 alone or together, or ZC-22", "result": "even higher therapeutic efficacy than combined Olaparib and Abemaciclib therapy"}]}
